Results from US11111245B2, “Derivatives of N-cycloalkyl/heterocycloalkyl-4-(imidazo[1,2-a]pyridine)pyrimidin-2-amine as therapeutic agents” (Aucentra Therapeutics Pty Ltd, priority 2017, dated 2021).

Key:
T47D = assay: MTT cell viability assay, T47D breast cancer cell line (72 h); type: cell-based; conditions: Homo sapiens, read-out: 72 h Antiproliferative activity, GI50 (μmol/L) ± SD
Protocol: (§1) Compounds from Example 1 were subjected to a standard MTT (3-(4,5-dimethylthiazol-2-yl)-2,5-diphenyltetrazolium bromide) and resazurin assays on solid tumour cell lines and leukemia cell lines, respectively, as previously reported (Wang S et al., J Med Chem 47:1662-1675, 2004 and Diab S. et al. CheMedChem 9:962-972, 2014). Compound concentrations required to inhibit 50% of cell growth (GI50) were calculated using non-linear regression analysis.

MCF-7 = assay: MTT cell viability assay, MCF-7 breast cancer cell line (72 h); type: cell-based; conditions: Homo sapiens, MCF7, MCF-7, 72 h, read-out: 72 h Antiproliferative activity, GI50 (μmol/L) ± SD
Protocol: as §1

MDA-MB-231 = assay: MTT cell viability assay, MDA-MB-231 breast cancer cell line (72 h); type: cell-based; conditions: Homo sapiens, MDA-MB-231, 72 h, read-out: 72 h Antiproliferative activity, GI50 (μmol/L) ± SD
Protocol: as §1

MDA-MB-453 = assay: MTT cell viability assay, MDA-MB-453 breast cancer cell line (72 h); type: cell-based; conditions: Homo sapiens, MDA-MB-453, 72 h, read-out: 72 h Antiproliferative activity, GI50 (μmol/L) ± SD
Protocol: as §1

MDA-MB-468 = assay: MTT cell viability assay, MDA-MB-468 breast cancer cell line (72 h); type: cell-based; conditions: Homo sapiens, MDA-MB-468, 72 h, read-out: 72 h Antiproliferative activity, GI50 (μmol/L) ± SD
Protocol: as §1

A2780 = assay: MTT cell viability assay, A2780 ovarian cancer cell line (72 h); type: cell-based; conditions: Homo sapiens, A2780, 72 h, read-out: 72 h Antiproliferative activity, GI50 (μmol/L) ± SD
Protocol: as §1

PC3 = assay: MTT cell viability assay, PC3 prostate cancer cell line (72 h); type: cell-based; conditions: Homo sapiens, PC-3, PC3, 72 h, read-out: 72 h Antiproliferative activity, GI50 (μmol/L) ± SD
Protocol: as §1

MOLM13 = assay: Resazurin cell viability assay, MOLM13 leukaemia cell line (72 h); type: cell-based; conditions: Homo sapiens, MOLM-13, MOLM13, 72 h, read-out: 72 h Antiproliferative activity, GI50 (μmol/L) ± SD
Protocol: as §1

NB4 = assay: Resazurin cell viability assay, NB4 leukaemia cell line (72 h); type: cell-based; conditions: Homo sapiens, NB-4, NB4, 72 h, read-out: 72 h Antiproliferative activity, GI50 (μmol/L) ± SD
Protocol: as §1

U937 = assay: Resazurin cell viability assay, U937 leukaemia cell line (72 h); type: cell-based; conditions: Homo sapiens, U-937, U937, 72 h, read-out: 72 h Antiproliferative activity, GI50 (μmol/L) ± SD
Protocol: as §1

CDK4/D1 = CDK4/D1 (Homo sapiens, UniProt P11802); assay: ADP Glo Kinase assay CDK4/D1; type: biochemical; conditions: CDK4D1; for Ki: read-out: CDK inhibition, Ki (μM) CDK4D1; for remaining activity at 10 µM: compound at 10 μM, read-out: residual activity (%) at 10 μM CDK4D1
CDK4/D1, sequence (P11802 whole entry): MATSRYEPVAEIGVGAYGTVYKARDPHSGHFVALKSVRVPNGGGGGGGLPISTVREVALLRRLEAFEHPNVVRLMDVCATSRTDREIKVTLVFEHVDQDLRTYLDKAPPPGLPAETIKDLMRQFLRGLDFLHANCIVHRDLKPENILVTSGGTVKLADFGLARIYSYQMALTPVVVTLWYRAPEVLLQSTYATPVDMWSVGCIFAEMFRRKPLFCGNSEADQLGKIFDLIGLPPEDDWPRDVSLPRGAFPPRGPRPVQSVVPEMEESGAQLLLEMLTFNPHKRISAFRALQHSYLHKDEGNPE
CDK4/D1, sequence (P24385 whole entry partner): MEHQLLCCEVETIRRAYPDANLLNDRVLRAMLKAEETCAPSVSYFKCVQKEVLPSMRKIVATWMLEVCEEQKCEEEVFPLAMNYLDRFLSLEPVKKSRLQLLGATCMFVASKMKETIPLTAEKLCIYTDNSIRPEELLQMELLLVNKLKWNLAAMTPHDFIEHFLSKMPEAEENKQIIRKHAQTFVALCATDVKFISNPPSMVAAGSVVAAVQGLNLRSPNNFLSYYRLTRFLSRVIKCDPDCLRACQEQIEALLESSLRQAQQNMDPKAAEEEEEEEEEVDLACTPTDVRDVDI
Summary of the method: (§2)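 In-house ADP-Glo assay: CDK4/D1 or CDK6/D3 with RB-CTF substrate in […] Tris pH 7.5, 20 mM MgCl2, 0.4 mM DTT, 0.1 mg/ml BSA; ATP-started, 40 min at 37° C.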

CDK6/D3 = CDK6/D3 (Homo sapiens, UniProt Q00534); assay: ADP Glo Kinase assay CDK6/D3; type: biochemical; conditions: CDK6D3; for Ki: read-out: CDK inhibition, Ki (μM) CDK6D3; for remaining activity at 10 µM: compound at 10 μM, read-out: residual activity (%) at 10 μM CDK6D3
CDK6/D3, sequence (Q00534 whole entry): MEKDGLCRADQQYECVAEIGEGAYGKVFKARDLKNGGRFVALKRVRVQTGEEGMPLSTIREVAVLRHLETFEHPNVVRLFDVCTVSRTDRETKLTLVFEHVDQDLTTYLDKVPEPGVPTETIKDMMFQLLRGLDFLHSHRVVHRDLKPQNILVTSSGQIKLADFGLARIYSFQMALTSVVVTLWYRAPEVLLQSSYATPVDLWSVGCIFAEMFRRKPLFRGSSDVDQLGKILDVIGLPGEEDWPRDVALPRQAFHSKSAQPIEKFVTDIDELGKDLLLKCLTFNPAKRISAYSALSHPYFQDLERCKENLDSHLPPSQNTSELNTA
CDK6/D3, sequence (P30281 whole entry partner): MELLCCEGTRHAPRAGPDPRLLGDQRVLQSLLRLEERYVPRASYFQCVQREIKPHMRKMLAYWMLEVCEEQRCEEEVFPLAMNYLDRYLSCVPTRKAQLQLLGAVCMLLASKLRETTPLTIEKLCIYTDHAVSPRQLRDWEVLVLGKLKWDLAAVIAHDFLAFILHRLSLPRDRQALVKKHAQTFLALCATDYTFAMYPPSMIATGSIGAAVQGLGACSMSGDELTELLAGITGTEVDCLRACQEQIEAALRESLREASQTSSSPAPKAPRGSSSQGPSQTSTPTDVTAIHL
Summary of the method: as §2

CDK9/T1 = CDK9/T1 (Homo sapiens, UniProt P50750); assay: ADP Glo Kinase assay CDK9/T1; type: biochemical; conditions: CDK9T1; read-out: CDK inhibition, Ki (μM) CDK9T1
CDK9/T1, sequence (P50750 whole entry): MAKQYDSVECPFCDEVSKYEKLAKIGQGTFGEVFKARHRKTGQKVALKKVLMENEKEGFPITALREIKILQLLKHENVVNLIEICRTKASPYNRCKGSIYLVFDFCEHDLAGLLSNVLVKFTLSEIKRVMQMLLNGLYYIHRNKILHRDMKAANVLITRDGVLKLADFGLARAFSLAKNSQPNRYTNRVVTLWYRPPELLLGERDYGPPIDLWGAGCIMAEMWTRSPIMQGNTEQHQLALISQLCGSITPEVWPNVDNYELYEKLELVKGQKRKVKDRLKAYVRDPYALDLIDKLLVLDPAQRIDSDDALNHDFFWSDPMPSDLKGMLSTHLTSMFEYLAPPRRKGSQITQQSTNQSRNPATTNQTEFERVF
CDK9/T1, sequence (O60563 whole entry partner): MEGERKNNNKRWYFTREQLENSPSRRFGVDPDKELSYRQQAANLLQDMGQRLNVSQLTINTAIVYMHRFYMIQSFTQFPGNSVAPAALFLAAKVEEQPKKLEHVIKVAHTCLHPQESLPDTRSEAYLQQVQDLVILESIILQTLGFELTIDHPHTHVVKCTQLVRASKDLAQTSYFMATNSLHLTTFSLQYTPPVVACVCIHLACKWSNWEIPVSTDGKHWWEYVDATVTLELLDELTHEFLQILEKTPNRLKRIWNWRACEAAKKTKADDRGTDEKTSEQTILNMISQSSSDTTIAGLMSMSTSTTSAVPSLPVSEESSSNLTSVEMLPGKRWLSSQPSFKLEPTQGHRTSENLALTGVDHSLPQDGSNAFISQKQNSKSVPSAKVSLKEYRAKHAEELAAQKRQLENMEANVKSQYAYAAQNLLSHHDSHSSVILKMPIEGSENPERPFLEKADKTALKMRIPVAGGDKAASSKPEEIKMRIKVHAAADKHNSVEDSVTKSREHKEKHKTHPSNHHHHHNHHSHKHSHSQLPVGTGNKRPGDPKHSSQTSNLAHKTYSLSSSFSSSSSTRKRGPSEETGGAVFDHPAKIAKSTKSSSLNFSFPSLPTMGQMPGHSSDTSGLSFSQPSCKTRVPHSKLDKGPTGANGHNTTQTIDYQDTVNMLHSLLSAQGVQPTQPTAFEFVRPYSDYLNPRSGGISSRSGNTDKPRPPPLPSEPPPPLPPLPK
Summary of the method: (§3)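 Other CDKs and further kinases were profiled externally by radiometric assay. In-house ADP Glo assays covered CDK4/D1 and CDK6/D3 (RB-CTF substrate, pH 7.5 Tris buffer with MgCl2, DTT, BSA) and CDK9/T1 (RBER-IRStide substrate), 40 min at 37° C.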

CDKs and other kinases [1] = biological target: T1, CDKs and other kinases (Homo sapiens, UniProt P06493); assay: Radiometric kinase assay (Eurofins Pharma Discovery or Reaction Biology Corporation Kinase Profiler); type: biochemical; conditions: CDK1B; for Ki: read-out: CDK inhibition, Ki (μM) CDK1B; for remaining activity at 10 µM: compound at 10 μM, read-out: residual activity (%) at 10 μM CDK1B
T1 construct: other: CDK1B; residual activity (%) at 10 μM CDK1B; compound at 10 μM
T1 sequence (P06493 whole entry): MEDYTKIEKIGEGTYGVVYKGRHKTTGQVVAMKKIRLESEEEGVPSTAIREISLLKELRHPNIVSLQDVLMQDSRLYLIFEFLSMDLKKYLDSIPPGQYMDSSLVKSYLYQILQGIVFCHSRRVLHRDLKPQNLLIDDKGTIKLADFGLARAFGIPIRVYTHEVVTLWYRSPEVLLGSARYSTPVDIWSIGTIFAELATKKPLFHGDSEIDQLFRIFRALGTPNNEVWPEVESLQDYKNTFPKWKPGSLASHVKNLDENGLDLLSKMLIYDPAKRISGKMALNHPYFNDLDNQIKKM
Summary of the method: as §3

CDKs and other kinases [2] = biological target: T2, CDKs and other kinases (Homo sapiens, UniProt P24941); assay: as above; type: biochemical; conditions: CDK2A; for Ki: read-out: CDK inhibition, Ki (μM) CDK2A; for remaining activity at 10 µM: compound at 10 μM, read-out: residual activity (%) at 10 μM CDK2A
T2 construct: other: CDK2A; residual activity (%) at 10 μM CDK2A; compound at 10 μM
Summary of the method: as §3

CDKs and other kinases [3] = biological target: T3, CDKs and other kinases (Homo sapiens, UniProt P50613); assay: as above; type: biochemical; conditions: CDK7H; for Ki: read-out: CDK inhibition, Ki (μM) CDK7H; for remaining activity at 10 µM: compound at 10 μM, read-out: residual activity (%) at 10 μM CDK7H
T3 construct: other: CDK7H; residual activity (%) at 10 μM CDK7H; compound at 10 μM
T3 sequence (P50613 whole entry): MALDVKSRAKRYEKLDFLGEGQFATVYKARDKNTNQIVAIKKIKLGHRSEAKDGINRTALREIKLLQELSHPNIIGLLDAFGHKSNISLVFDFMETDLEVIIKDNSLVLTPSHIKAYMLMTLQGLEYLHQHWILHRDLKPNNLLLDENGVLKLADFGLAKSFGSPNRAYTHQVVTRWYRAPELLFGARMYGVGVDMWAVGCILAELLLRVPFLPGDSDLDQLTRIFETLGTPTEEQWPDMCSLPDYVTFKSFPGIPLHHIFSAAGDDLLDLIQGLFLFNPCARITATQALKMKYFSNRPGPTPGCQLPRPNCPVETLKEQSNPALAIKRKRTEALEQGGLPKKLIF
Summary of the method: as §3

leukemia cell lines = assay: Resazurin cell viability assay on leukemia cell lines (72 h growth inhibition, GI50); type: cell-based; conditions: Homo sapiens, MV4-11 cells
Summary of the method: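 MTT assay for solid tumour lines and resazurin assay for leukaemia lines, run by reported methods. GI50, the concentration giving 50% growth inhibition, was obtained by non-linear regression.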

LNCap = assay: MTT cell viability assay, LNCap prostate cancer cell line (72 h); type: cell-based; conditions: Homo sapiens, read-out: 72 h Antiproliferative activity, GI50 (μmol/L) ± SD
Protocol: as §1

Row | Ki (CDK9/T1) [µM] | Ki (CDKs and other kinases [1]) [µM] | Ki (CDKs and other kinases [2]) [µM] | Ki (CDKs and other kinases [3]) [µM] | GI50 (leukemia cell lines) [µM] | remaining activity at 10 µM (CDK4/D1) [%] | remaining activity at 10 µM (CDK6/D3) [%] | remaining activity at 10 µM (CDKs and other kinases [1]) [%] | remaining activity at 10 µM (CDKs and other kinases [2]) [%] | remaining activity at 10 µM (CDKs and other kinases [3]) [%] | Structure (SMILES) | further results
1 | 0.006 | 0.42 | 0.24 | 0.73 | 0.075 ± 0.011 | – | – | – | – | – | N[C@H]1CC[C@H](Nc2ncc(F)c(-c3cnc4ccc(NCc5ccc(F)cc5)cn34)n2)CC1 [Compound 7, (1r,4r)-N^1-(5-Fluoro-4-(6-((4-fluorobenzyl)amino)imidazo [1,2-a]pyridin-3-yl)pyrimidin-2-yl)cyclohexane-1,4-diamine] | GI50 (T47D): 0.616 ± 0.086 µmol/L; GI50 (MCF-7): 0.218 ± 0.013 µmol/L; GI50 (MDA-MB-231): 0.035 ± 0.008 µmol/L; GI50 (MDA-MB-453): 0.931 ± 0.269 µmol/L; GI50 (MDA-MB-468): 0.08 ± 0.015 µmol/L; GI50 (A2780): 0.274 ± 0.03 µmol/L; GI50 (PC3): 0.087 ± 0.04 µmol/L; GI50 (MOLM13): 0.015 ± 0.006 µmol/L; GI50 (NB4): 0.16 ± 0.052 µmol/L; GI50 (U937): 0.156 ± 0.061 µmol/L; Ki (CDK4/D1): 0.691 µM; Ki (CDK6/D3): 1.71 µM
2 | 0.008 | 1.53 | 0.43 | 0.6 | 0.059 ± 0.008 | – | – | – | – | – | Cc1cnc(N[C@H]2CC[C@H](N)CC2)nc1-c1cnc2ccc(-c3ccccc3)cn12 [Compound 10, (1r,4r)-N^1-(5-Methyl-4-(6-phenylimidazo[1,2-a]pyridin-3-yl)pyrimidin-2-yl)cyclohexane-1,4-diamine] | GI50 (T47D): 0.834 ± 0.066 µmol/L; GI50 (MCF-7): 0.247 ± 0.014 µmol/L; GI50 (MDA-MB-231): 0.418 ± 0.123 µmol/L; GI50 (MDA-MB-453): 0.049 ± 0.012 µmol/L; GI50 (MDA-MB-468): 0.42 ± 0.07 µmol/L; GI50 (A2780): 0.278 ± 0.032 µmol/L; GI50 (PC3): 0.289 ± 0.098 µmol/L; GI50 (LNCap): 0.202 ± 0.052 µmol/L; GI50 (MOLM13): 0.019 ± 0.001 µmol/L; GI50 (NB4): 0.153 ± 0.051 µmol/L; GI50 (U937): 0.156 ± 0.05 µmol/L; Ki (CDK4/D1): 2.62 µM; Ki (CDK6/D3): 1.54 µM
3 | 0.013 | – | – | – | 0.008 ± 0.003 | 4 | 21 | 6 | 7 | 6 | N[C@H]1CC[C@H](Nc2ncc(F)c(-c3cnc4ccc(NC(=O)Cc5ccccc5)cn34)n2)CC1 [Compound 52, N-(3-(2-(((1r,4r)-4-Aminocyclohexyl)amino)-5-fluoropyrimidin-4-yl)imidazo[1,2-a]pyridin-6-yl)-2-phenylacetamide] | –
4 | 0.005 | – | – | 0.075 | 0.026 ± 0.009 | 8 | 40 | 53 | 28 | – | Cc1cnc(N[C@H]2CC[C@H](N)CC2)nc1-c1cnc2cc(C(F)(F)F)c(Br)cn12 [Compound 114, (1r,4r)-N^1-(4-(6-Bromo-7-(trifluoromethyl)imidazo [1,2-a]pyridin-3-yl)-5-methylpyrimidin-2-yl) cyclohexane-1,4-diamine] | –
5 | 0.033 | – | – | – | 0.035 ± 0.006 | 9 | 12 | 51 | 39 | 10 | N[C@H]1CC[C@H](Nc2ncc(Cl)c(-c3cnc4ccc(-c5ccc(N6CCNCC6)nc5)cn34)n2)CC1 [Compound 84, (1r,4r)-N^1-(5-Chloro-4-(6-(6-(piperazin-1-yl)pyridin-3-yl)imidazo[1,2-a]pyridin-3-yl)pyrimidin-2-yl)cyclohexane-1,4-diamine] | –
6 | 0.009 | 0.266 | 0.08 | 0.23 | 0.008 ± 0.002 | 45 | 58 | – | – | – | Cc1cnc(N[C@H]2CC[C@H](N)CC2)nc1-c1cnc2ccc(C(F)(F)F)cn12 [Compound 9, (1r,4r)-N^1-(5-Methyl-4-(6-(trifluoromethyl)imidazo[1,2-a]pyridin-3-yl)pyrimidin-2-yl)cyclohexane-1,4-diamine] | –
7 | 0.497 | – | – | – | 0.025 ± 0.009 | 63 | 87 | 87 | 72 | 60 | Cc1cnc(N[C@H]2CC[C@H](N)CC2)nc1-c1cnc2ccc(-c3ccc(S(=O)(=O)N(C)C)cc3)cn12 [Compound 62, 4-(3-(2-(((1r,4r)-4-Aminocyclohexyl)amino)-5-methylpyrimidin-4-yl)imidazo[1,2-a]pyridin-6-yl)-N,N-dimethylbenzenesulfonamide] | –
